In US20250177412A1, “SMALL-MOLECULE INHIBITORS TARGETING THE BOB1/OCT1 INTERFACE” (NANTES UNIVERSITE, priority 2022, published 2025):

Key:
HEK293 cells = test: MTT assay; type: cell-based; details: data not shown
[1] = target: T1, POU domain of OCT1 (POU1) (Homo sapiens, UniProt P14859); test: Thermal shift assay (TSA); type: binding; details: compound 10 μM, POU1 5 μM
T1 construct: 6xHis (pET28 N-terminal histidine tag) (N); made in house; host or cells: E. coli BL21
T1 sequence (P14859 280-438): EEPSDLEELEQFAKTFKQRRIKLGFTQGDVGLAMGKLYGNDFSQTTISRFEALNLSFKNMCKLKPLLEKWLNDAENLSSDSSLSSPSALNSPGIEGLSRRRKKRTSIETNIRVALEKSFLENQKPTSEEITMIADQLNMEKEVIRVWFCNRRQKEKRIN
Procedure: Following primers were used for the amplification:
POU1 and BOB1 proteins (each at a final concentration 5 μM), compound 005 (final concentration 10 μM), and 1× ProteOrange fluorescent dye (Lumiprobe, Russia) were mixed in triplicates in 100 μL of 0.1 M phosphate buffered saline pH 7.4 per and pipetted into 96-well 0.2-mL thin-wall PCR plates (Roche Life Science, Switzerland) sealed with optical-grade sealing film. Fluorescence data were acquired on a LightCycler® 96 Real Time PCR Instrument (Roche Life Science, Switzerland) with an excitation range of 470-533 nm. The fluorescence emission signal at […] was measured for data analysis. The temperature was held for 30 sec per degree from 37 to 98° C. (ramp rate of […]). The derivatives of the fluorescence signal as function of the temperature were used for further analysis.

memory B cells = test: In vitro plasmablast differentiation, two-phase human B cell model, flow cytometry; type: cell-based; details: for expression of CD20 marker (CD20+ B cells): day 7 (FIG. 3O-P); for frequency of CD27+ cells: day 4
Description: FIGS. 3A-Y are a combination of graphs and FACS plots showing that targeting BOB1-OCT(s) complex by compound 005 dose-dependently impairs B cells proliferation, activation and differentiation into plasmablasts in the human B cell differentiation in vitro model. Enriched memory B cells from the blood of healthy subjects (n=15) were stimulated at day 0 with anti-F(ab′)2, CD40L, CpG, and IL-2 for four days (activation phase). On day 4, cells were washed and stimulated with IL-2, IL-4, and IL-10 for additional three days (differentiation phase). Compound 005 was added daily to the cultures to a final concentration of 0 (DMSO), 5, 10, 15, 20 μM, as indicated. […] FIG. 3C-H show corresponding summarized data for the frequency (FIG. 3C, E and G) and relative mean fluorescence intensity (MFI; FIG. 3D, F and H) of CD27^+ (FIG. 3C-D), CD38^+ (FIG. 3E-F), and CD20^+ (FIG. 3G-H) B cells analyzed at Day 4. […] FIG. 3K-P show corresponding summarized data for the frequency (Fig. K, M and O) and relative mean fluorescence intensity (MFI; Fig. L, N and P) of CD27^+ (FIG. 3K-L), CD38^+ (FIG. 3M-N), and CD20^+ (FIG. 3O-P) B cells analyzed at Day 7. […] FIG. 3R-Y show the effect of compound 005 on the levels of IgG1 (FIG. 3R), IgG2 (FIG. 3S), IgG3 (FIG. 3T), IgG4 (FIG. 3U), IgA (FIG. 3V), IgE (FIG. 3W), IgM (FIG. 3X) and IgD (FIG. 3Y) immunoglobulin isotypes production at Day 7. Error bars are mean±SD. P values were determined with one-way ANOVA with Geisser-Greenhouse's multiple comparisons test.
Blood samples were obtained from healthy volunteers provided by Sanquin Blood Supply Foundation (Amsterdam, the Netherlands) or from Etablissement Français du Sang (Nantes, France) after written consent was obtained. Peripheral blood mononuclear cells (PBMCs) were isolated through Ficoll-Paque gradient centrifugation on Lymphoprep (Nycomed). Total B cells were isolated from freshly purified PBMCs by negative selection (B cell Isolation Kit II; Miltenyi Biotech, 130-091-151) on magnetic columns using autoMACS Pro Separator according to the manufacturer's instructions. Subsequently, memory and naïve B cells were isolated from negatively-selected CD19^+ B cells by positive and negative selection with CD27 MicroBeads (Miltenyi Biotech, 130-051-601) using autoMACS Pro Separator according to the manufacturer's instructions. Ultimately, purity of the MACS-isolated CD19^+ B cells, CD19^+CD27^+IgD^− memory B cells and CD19^+CD27^−IgD^+ […] was assessed by flow cytometry; purity was >90% for B cells, >65% for memory B cells, and >85% for naive B cells. All cell cultures were carried out in RPMI 1640 medium (Thermo Fisher Scientific) supplemented with 10% FCS, L-glutamine, and penicillin/streptomycin. Cells were incubated at 37° C. in a 5% CO2 atmosphere.
Cells were resuspended in PBS and labelled with Cell Proliferation Dye eFluor 450 (CPD) (eBioscience) at a final concentration of 10 μM at 37° C. for 10 min, kept on ice for 5 min, and washed twice with 10 mL of ice-cold RPMI 1640 10% FCS medium.
B cells were stimulated to differentiate into plasmablasts using a two-phase cell culture protocol as previously described. Briefly, B cells were seeded at 4×10^5 cells/mL in 24-well plates and activated during 4 days with 50 ng/mL recombinant human soluble CD40L (R&D Systems), 2.5 μg/mL CpG oligodeoxynucleotide (ODN) 2006 (Amidogen or Cayla Invivogen), 2 μg/mL F(ab′)2 fragment goat anti-human IgA+IgG+IgM (H+L) polyclonal Abs (anti-BCR) (Jackson ImmunoResearch Laboratories), and 50 U/mL human IL-2 (SARL Pharmaxie or Novartis). Day 4-activated B cells were washed and cultured at the same concentration for three additional days in a fresh medium containing 50 U/mL human IL-2, 10 ng/mL human IL-4 (R&D Systems), and 10 ng/mL human IL-10 (R&D Systems) to induce B cell differentiation into plasmablasts. […]

## Cc1ccc(NC(=O)C2CN(c3nc(NCCCc4ccc(F)cc4)nc(NCCC(=O)O)n3)c3ccccc3O2)cc1Cl (centres unmarked) [compound 005, 3-((4-(2-((3-chloro-4-methylphenyl)carbamoyl)-2,3-dihydro-4H-benzo[b][1,4]oxazin-4-yl)-6-((3-(4-fluorophenyl)propyl)amino)-1,3,5-triazin-2-yl)amino)propanoic acid]
HEK293 cells; concentrations up to 40 μM
  toxicity for HEK293 cells: non-toxic or mildly toxic
HEK293 cells
  concentration from which inhibitory effect is observed in MTT assay: ≥ 10 µM
[1]
  increase of POU1 melting temperature: about 4 °C
Memory B cells; 5 μM, day 4, mean±SD
  frequency of CD38+ B cells: 30.5±25.6%
  proliferating (CPD low) B cells: 66.3±4.8%
Memory B cells; 5 μM, day 7
  frequency of CD38+ B cells: 68.9±10.2%
  relative proportion of CD27+ cells: 54.3±15.9%
Memory B cells; 10 μM, day 4, mean±SD
  frequency of CD38+ B cells: 23.9±18.3
  proliferating (CPD low) B cells: 46.7±18.3%
Memory B cells; 10 μM, day 7
  CD20loCD38hi plasmablasts generation, median percentage decrease: 30.3%
  frequency of CD38+ B cells: 55.5±16.1
  relative proportion of CD27+ cells: 53.6±14.2%
Memory B cells; 10 μM
  expression of CD20 marker (CD20+ B cells): 81.7±12.4%
Memory B cells; 15 μM
  frequency of CD27+ cells: 9.5±11.7%
  expression of CD20 marker (CD20+ B cells): 85.4±11.7%
Memory B cells; 15 μM, day 4, mean±SD
  frequency of CD38+ B cells: 4.3±3.7%
  proliferating (CPD low) B cells: 34.9±19.2%
Memory B cells; 15 μM, day 7
  CD20loCD38hi plasmablasts generation, median percentage decrease: 70.5%
  frequency of CD38+ B cells: 26.3±13.9%
Memory B cells; 20 μM
  frequency of CD27+ cells: 6.4±6.4
Memory B cells; 20 μM, day 4, mean±SD
  frequency of CD38+ B cells: 2.5±2.2
  proliferating (CPD low) B cells: 20.4±19.0%
Memory B cells; 20 μM, day 7
  CD20loCD38hi plasmablasts generation, median percentage decrease: 85.2%
  frequency of CD38+ B cells: 13.0±12.9
  relative proportion of CD27+ cells: 9.4±8.1%
Memory B cells; with the increase in concentration, day 7
  frequencies of naïve B cells: significantly increased
